Results taken from US8815875B2 (Merck Sharp & Dohme Corp., priority 2008, dated 2014).

Biological target: FABP4 (Homo sapiens, UniProt P15090)
Assay: TdF (Temperature Dependence Fluorescence) assay, thermal shift, FABP4
Type: binding
Source text: TdF (Temperature Dependence Fluorescence) Assay for FABP3 and FABP4
The TdF assay was mainly conducted in the 96-well based CHROMO-4 real time fluorescence plate reader (BioRad). The Sypro Orange (Sigma-Aldrich), environmentally sensitive fluorescence dye, was used to monitor the protein folding-unfolding transition. Protein-ligand binding was gauged by the change (or shift) in the unfolding transition temperature (ΔTm) acquired at protein alone with respect to protein in the presence of ligand of interest.
The compound of interest was first prepared in DMSO stock (typical concentration: 10 mM). […] Final percentage of DMSO resided in the sample was 2%. The sample plate was heated from 30° C. to 90° C. with thermal ramping rate of 1° C./min. The fluorescence signals were acquired with excitation and emission wavelengths centered at 490 and 560 nm respectively. The instrument thermal stability was ±0.2° C.
Theoretical basis for TdF-based ligand binding affinity constant
In brief, the binding constant of the ligand at the Tm is expressed as below:
[formula] where To is the midpoint of unfolding for unliganded protein and Tm is the midpoint of unfolding in presence of ligand. [LTm] is free ligand at Tm. The ΔHu and ΔCpu are the enthalpy of unfolding and heat capacity change of unfolding for the protein respectively.
The nonlinear regression fitting in general readily reaches convergence by properly constraining the initial values for the fitting parameters (e.g. the initial “guess” for the ΔHu was constrained to 120 kcal/mol; initial Yn and mn were set to 1 and zero to best represent the melting curve along the low temperature region; negative slope of −0.5 was initially chosen for mu; initial Tm was also constrained to 50° C.).
[formula] (see Brandts et al and Mayhood et al, shown above) where ΔHL (T) is the van't Hoff enthalpy of ligand binding at temperature T and ΔCpL is the heat capacity upon ligand binding. For simplicity, the ΔCpL and ΔHL (T) were set to zero and −7 kcal/mol respectively. […] TdCD (Temperature-dependent Circular Dichroism) Assay for FABP3/4/5

FABP4, sequence (P15090 whole entry, species assumed): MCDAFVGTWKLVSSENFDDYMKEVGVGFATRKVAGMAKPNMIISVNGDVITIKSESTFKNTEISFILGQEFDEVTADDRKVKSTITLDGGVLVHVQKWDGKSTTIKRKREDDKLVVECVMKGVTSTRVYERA

Compound | Kd | FABP4 TdF Kd
CCc1ccc(S(=O)(=O)Cc2cc(=O)n3nc(-c4ccccc4)nc3[nH]2)cc1 [12-2] | > 500 nM | –
O=C(NCC1(c2ccccc2Cl)CC1)C1(OCc2cc(=O)n3nc(-c4ccccc4)nc3[nH]2)CCCCC1 [48-14] | – | B (0.5 ≦ B < 0.001 μM)
O=c1cc(CN(c2cccc(Cl)c2)C2CC2)[nH]c2nc(-c3ccccc3)nn12 [17-3] | – | B (0.5 ≦ B < 0.001 μM)
CC1(C)CN(Cc2cc(=O)n3nc(-c4ccccc4)nc3[nH]2)c2cccc(Br)c21 [39-5] | – | B (0.5 ≦ B < 0.001 μM)
O=C(NCC1(CO)CCCC1)C1(OCc2cc(=O)n3nc(-c4ccccc4)nc3[nH]2)CCCCC1 [48-15, N-((1-(hydroxymethyl)cyclopentyl)methyl)-1-((7-oxo-2-phenyl-4,7-dihydro-[1,2,4]triazolo[1,5-a]pyrimidin-5-yl)methoxy)cyclohexanecarboxamide] | ≤ 1 nM | –
O=C(NCc1ccccc1C(F)(F)F)C1(OCc2cc(=O)n3nc(-c4ccccc4)nc3[nH]2)CCCCC1 [48-49] | – | B (0.5 ≦ B < 0.001 μM)
Cc1cc(N)nn1C(=O)c1c(Cl)cccc1OCc1cc(=O)n2nc(-c3ccccc3)nc2[nH]1 [47-52] | – | B (0.5 ≦ B < 0.001 μM)
O=c1cc(CN2CCCC2Cc2ccncn2)[nH]c2nc(-c3ccccc3)nn12 (centres unmarked) [1-103] | > 500 nM | –
CCc1ccc(NCc2cc(=O)n3ncnc3[nH]2)cc1 [4-3] | > 500 nM | –
CN(C(=O)c1ccccc1OCc1[nH]c2nc(-c3ccccc3)nn2c(=O)c1Cl)C1CCCCC1 [24-12] | – | B (0.5 ≦ B < 0.001 μM)
CN(C(=O)C1(OCc2cc(=O)n3nc(-c4ccccc4)nc3[nH]2)CCCCC1)C1CCCCC1 [48-27] | – | B (0.5 ≦ B < 0.001 μM)
O=C(NCC1(c2ccccc2Cl)CC1)c1c(Cl)cccc1OCc1cc(=O)n2nc(-c3ccccc3)nc2[nH]1 [47-29, 2-chloro-N-((1-(2-chlorophenyl)cyclopropyl)methyl)-6-((7-oxo-2-phenyl-4,7-dihydro-[1,2,4]triazolo[1,5-a]pyrimidin-5-yl)methoxy)benzamide] | ≤ 1 nM | –
O=C(Nc1cc(C2CC2)n[nH]1)c1c(Cl)cccc1OCc1cc(=O)n2nc(-c3ccccc3)nc2[nH]1 [47-32, 2-chloro-N-(3-cyclopropyl-1H-pyrazol-5-yl)-6-((7-oxo-2-phenyl-4,7-dihydro-[1,2,4]triazolo[1,5-a]pyrimidin-5-yl)methoxy)benzamide] | – | B (0.5 ≦ B < 0.001 μM)
O=c1cc(CN2CCc3c(C4CC4)cccc32)[nH]c2nc(-c3ccccc3)nn12 [29-1] | > 500 nM | –
O=c1cc(COc2ccccc2Cl)[nH]c2nc(-c3ccccc3)nn12 [1-118] | – | B (0.5 ≦ B < 0.001 μM)
C#CC1(NC(=O)C2(OCc3cc(=O)n4nc(-c5ccccc5)nc4[nH]3)CCCCC2)CCCCC1 [48-41] | – | B (0.5 ≦ B < 0.001 μM)
O=c1cc(CO[C@@H]2C[C@H]3CC[C@@H]2C3)[nH]c2nc(-c3ccccc3)nn12 [1-107] | – | B (0.5 ≦ B < 0.001 μM)
C[C@@H]1C[C@@H](OCc2cc(=O)n3nc(-c4ccccc4)nc3[nH]2)CC(C)(C)C1 [1-110] | – | B (0.5 ≦ B < 0.001 μM)
C[C@@H]1C[C@H](OCc2cc(=O)n3nc(-c4ccccc4)nc3[nH]2)CC(C)(C)C1 [1-111] | – | B (0.5 ≦ B < 0.001 μM)
O=c1cc(COc2cccc(Cl)c2CNCCN2CCOCC2)[nH]c2nc(-c3ccccc3)nn12 [33-2] | > 500 nM | –
COc1ccccc1C1(CNC(=O)c2c(Cl)cccc2OCc2cc(=O)n3nc(-c4ccccc4)nc3[nH]2)CCC1 [47-23] | – | B (0.5 ≦ B < 0.001 μM)
CCc1ccc(OCc2cc(=O)n3nc(CO)nc3[nH]2)cc1 [8-8] | > 500 nM | –

Compound | Kd | FABP4 TdF Kd
O=c1cc(COc2cccc(OC(F)(F)F)c2)[nH]c2nc(-c3ccccc3)nn12 [1-64] | > 500 nM | –
O=c1c(Cl)c(COc2csc(C(F)(F)F)c2)[nH]c2nc(-c3ccccc3)nn12 [24-3] | – | B (0.5 ≦ B < 0.001 μM)
O=C(NCC1(CO)CC1)c1ccccc1OCc1cc(=O)n2nc(-c3ccccc3)nc2[nH]1 [47-65] | – | B (0.5 ≦ B < 0.001 μM)
O=C(NCC1(O)CCCCC1)C1(OCc2cc(=O)n3nc(-c4ccccc4)nc3[nH]2)CCCCC1 [48-56] | – | B (0.5 ≦ B < 0.001 μM)
O=C(NCc1ccccc1)C1(OCc2cc(=O)n3nc(-c4ccccc4)nc3[nH]2)CCCCC1 [48-52] | – | B (0.5 ≦ B < 0.001 μM)
O=c1cc(CN2CCC(Cc3ccc(Cl)cc3)CC2)[nH]c2nc(-c3ccccc3)nn12 [1-78] | > 500 nM | –
O=C(NC1(c2ccccc2Cl)CC1)C1(OCc2cc(=O)n3nc(-c4ccccc4)nc3[nH]2)CCCCC1 [48-8] | ≤ 1 nM | –
O=C(O)C1(OCc2cc(=O)n3nc(-c4ccccc4)nc3[nH]2)CCCC1 [48-78] | > 500 nM | –
Cc1nc(-c2ccc(OCc3cc(=O)n4nc(-c5ccccc5)nc4[nH]3)c(F)c2)cs1 [1-34] | > 500 nM | –
O=c1cc(COc2cc(Cl)cc(Cl)c2)[nH]c2nc(-c3ccccc3)nn12 [1-86] | – | B (0.5 ≦ B < 0.001 μM)
CCOc1ccc(NCc2cc(=O)n3nc(-c4ccccc4)nc3[nH]2)cc1 [6-2] | > 500 nM | –
CC1(NC(=O)c2c(Cl)cccc2OCc2cc(=O)n3nc(-c4ccccc4)nc3[nH]2)COC1 [47-47] | – | B (0.5 ≦ B < 0.001 μM)
Cc1cn(Cc2cc(=O)n3nc(-c4ccccc4)nc3[nH]2)c2cccc(Cl)c12 [1-142] | – | B (0.5 ≦ B < 0.001 μM)
O=C(NCC1CC1)C1(OCc2cc(=O)n3nc(-c4ccccc4)nc3[nH]2)CCCCC1 [48-16] | – | B (0.5 ≦ B < 0.001 μM)
O=C(O)c1ccccc1OCc1cc(=O)n2nc(-c3ccccc3)nc2[nH]1 [47-53] | > 500 nM | –
CN(C)Cc1c(Cl)cccc1OCc1cc(=O)n2nc(-c3ccccc3)nc2[nH]1 [33-1] | > 500 nM | –
O=C(NCC1(O)CCCC1)c1c(Cl)cccc1OCc1cc(=O)n2nc(-c3ccccc3)nc2[nH]1 [47-15, 2-chloro-N-((1-hydroxycyclopentyl)methyl)-6-((7-oxo-2-phenyl-4,7-dihydro-[1,2,4]triazolo[1,5-a]pyrimidin-5-yl)methoxy)benzamide] | – | B (0.5 ≦ B < 0.001 μM)
O=C(NCC1(CO)CCCC1)C1(OCc2[nH]c3nc(-c4ccccc4)nn3c(=O)c2Cl)CCCCC1 [50-5] | ≤ 1 nM | –
Cc1c(OCc2cc(=O)n3nc(-c4ccccc4)nc3[nH]2)cccc1C(F)(F)F [1-85] | – | B (0.5 ≦ B < 0.001 μM)
O=c1cc(COc2cc(Cl)ccc2CC2CC2)[nH]c2nc(-c3ccccc3)nn12 [43-3] | – | B (0.5 ≦ B < 0.001 μM)
Cn1nc(C2CC2)cc1NCc1cc(=O)n2nc(-c3ccccc3)nc2[nH]1 [1-151] | > 500 nM | –
O=C(NCC1(c2cccc(Cl)c2)CCC1)c1c(Cl)cccc1OCc1cc(=O)n2nc(-c3ccccc3)nc2[nH]1 [47-37, 2-chloro-N-((1-(3-chlorophenyl)cyclobutyl)methyl)-6-((7-oxo-2-phenyl-4,7-dihydro-[1,2,4]triazolo[1,5-a]pyrimidin-5-yl)methoxy)benzamide] | ≤ 1 nM | –
